How the values were obtained:
[1] = target: T1, BRD4 bromo domain 1 [BRD4(1)] (Homo sapiens, UniProt O60885); experiment: BRD4(1)/acetylated peptide H4 binding assay (TR-FRET); details: inhibition of interaction between His6-tagged BRD4(1) (amino acids 67-152) and acetylated histone H4 peptide
T1 construct: N-terminally His6-tagged BRD4(1) (amino acids 67-152); made in house; host or cells: E. coli
Source text: (§1) Protein-Protein Interaction Assay: BRD4/Acetylated Peptide H4 Binding Assay
1. Assay Description for BRD4 Bromo Domain 1 [BRD4(1)]
To assess the BRD4(1) binding strength of the substances described in this application, the ability thereof to inhibit the interaction between BRD4(1) and acetylated histone H4 in a dose-dependent manner was quantified.
(§2) For this purpose, a time-resolved fluorescence resonance energy transfer (TR-FRET) assay was used, which measures the binding between N-terminally His6-tagged BRD4(1) (amino acids 67-152) and a synthetic acetylated histone H4 (Ac-H4) peptide with sequence GRGK(Ac)GGK(Ac)GLGK(Ac)GGAK(Ac)RHGSGSK-biotin. The recombinant BRD4(1) protein produced in-house according to Filippakopoulos et al., Cell, 2012, 149:214-231 was expressed in E. coli and purified by means of (Ni-NTA) affinity and (Sephadex G-75) size exclusion chromatography. The Ac-H4 peptide can be purchased, for example, from Biosyntan (Berlin, Germany).
(§3) In the assay, typically 11 different concentrations of each substance (0.1 nM, 0.33 nM, 1.1 nM, 3.8 nM, 13 nM, 44 nM, 0.15 μM, 0.51 μM, 1.7 μM, 5.9 μM and 20 μM) were analysed as duplicates on the same microtitre plate. For this purpose, 100-fold concentrated solutions in DMSO were prepared by serial dilutions (1:3.4) of a 2 mM stock solution into a clear, 384-well microtitre plate (Greiner Bio-One, Frickenhausen, Germany). From this, 50 nl were transferred into a black test plate (Greiner Bio-One, Frickenhausen, Germany). The test was started by the addition of 2 μl of a 2.5-fold concentrated BRD4(1) solution (final concentration typically 10 nM in the 5 μl of reaction volume) in aqueous assay buffer [50 mM HEPES pH 7.5, 50 mM sodium chloride (NaCl), 0.25 mM CHAPS and 0.05% serum albumin (BSA)] to the substances in the test plate. This was followed by a 10-minute incubation step at 22° C. for the pre-equilibration of putative complexes between BRD4(1) and the substances.
(§4) The mixture was then incubated in the dark at 22° C. for one hour and then at 4° C. for at least 3 hours and for no longer than overnight. The formation of BRD4(1)/Ac-H4 complexes was determined by the measurement of the resonance energy transfer from the streptavidin-Eu cryptate to the anti-6His-XL665 antibody present in the reaction. For this purpose, the fluorescence emission was measured at 620 nm and 665 nm after excitation at 330-350 nm in a TR-FRET measuring instrument, for example a Rubystar or Pherastar (both from BMG Lab Technologies, Offenburg, Germany) or a Viewlux (Perkin-Elmer). The ratio of the emissions at 665 nm and at 622 nm was taken as an indicator of the amount of BRD4(1)/Ac-H4 complexes formed.
(§5) The data (ratios) obtained were normalized, with 0% inhibition corresponding to the mean from the measurements for a set of controls (typically 32 data points) in which all the reagents were present. In these, in place of test substances, 50 nl of DMSO (100%) were used. Inhibition of 100% corresponded to the mean from the measurements for a set of controls (typically 32 data points) in which all the reagents except BRD4(1) were present. The IC50 was determined by regression analysis based on a 4-parameter equation (minimum, maximum, IC50, Hill; Y=max+(min−max)/(1+(X/IC50)Hill).

[2] = target: T2, BRD4 bromo domain 2 [BRD4(2)] (Homo sapiens, UniProt O60885); experiment: BRD4(2)/acetylated peptide H4 binding assay (TR-FRET); details: inhibition of interaction between His6-tagged BRD4(2) (amino acids 357-445) and acetylated histone H4 peptide
T2 construct: N-terminally His6-tagged BRD4(2) (amino acids 357-445); made in house; host or cells: E. coli
Source text: as §1
2. Assay Description for BRD4 Bromo Domain 2 [BRD4(2)]
To assess the BRD4(2) binding strength of the substances described in this application, the ability thereof to inhibit the interaction between BRD4(2) and acetylated histone H4 in a dose-dependent manner was quantified.
as §2, with “BRD4(2)” for “BRD4(1)”, “357-445)” for “67-152)”, “SGRGK(Ac)GGK(Ac)GLGK(Ac)GGAK(Ac)RHRKVLRDNGSGSK-biotin.” for “GRGK(Ac)GGK(Ac)GLGK(Ac)GGAK(Ac)RHGSGSK-biotin.”
as §3, with “concentrated BRD4(2)” for “concentrated BRD4(1)”, “typically 100” for “typically 10”, “chloride (NaCl); 50 mM potassium fluoride (KF);” for “chloride (NaCl),”, “between BRD4(2)” for “between BRD4(1)”
as §4, with “BRD4(2)/Ac-H4” for “BRD4(1)/Ac-H4”, “chelate” for “cryptate”
as §5, with “BRD4(2)” for “BRD4(1)”

Compound	IC50 [1] [µM]	IC50 [2] [µM]
C[C@@H]1C(=O)N(C)c2ccc(Nc3ccc(C(=O)NC4CCC(N5CCC(F)(F)CC5)CC4)cc3)nc2N1C1CCOCC1 (some centres unmarked) [Example 52]	0.166	0.299
COc1cc(C(=O)N2CCN(C3CC3)CC2)ccc1Nc1ccc2c(n1)N(C1CCOCC1)[C@H](C)C(=O)N2C [Example 65, (3R)-6-({4-[(4-Cyclopropylpiperazin-1-yl)carbonyl]-2-methoxyphenyl}amino)-1,3-dimethyl-4-(tetrahydro-2H-pyran-4-yl)-3,4-dihydropyrido[2,3-b]pyrazin-2(1H)-one]	0.234	0.12
COc1cc(C(=O)N2CC3(COC3)C2)ccc1Nc1ccc2c(n1)N(C1CCCCC1)[C@H](C)C(=O)N2C [Example 73, (3R)-4-Cyclohexyl-6-{[2-methoxy-4-(2-oxa-6-azaspiro[3.3]hept-6-ylcarbonyl)phenyl]amino}-1,3-dimethyl-3,4-dihydropyrido[2,3-b]pyrazin-2(1H)-one]	0.273	0.196
C[C@@H]1C(=O)N(C)c2ccc(Nc3ccc(C(=O)N4CC5(CCS5(=O)=O)C4)cc3)nc2N1C1CCCCC1 [Example 29, (3R)-4-Cyclohexyl-6-({4-[(1,1-dioxido-1-thia-6-azaspiro[3.3]hept-6-yl)carbonyl]phenyl}amino)-1,3-dimethyl-3,4-dihydropyrido[2,3-b]pyrazin-2(1H)-one]	0.242	0.149
C[C@@H]1C(=O)N(C)c2ccc(Nc3ccc(S(=O)(=O)N[C@H]4CC[C@H](N5CCN(CC6CC6)CC5)CC4)cc3)nc2N1Cc1ccccc1 [Example 109, 4-{[(3R)-4-Benzyl-1,3-dimethyl-2-oxo-1,2,3,4-tetrahydropyrido[2,3-b]pyrazin-6-yl]amino}-N-{trans-4-[4-(cyclopropylmethyl)piperazin-1-yl]cyclohexyl}benzenesulphonamide]	0.036	0.078

Further compounds by falling IC50 [1], results first:

IC50 [1] [µM]	IC50 [2] [µM]	Compound
0.438	0.344	CC(C)N1c2nc(Nc3ccc(C(=O)N[C@H]4CC[C@H](N5CCN(CC6CC6)CC5)CC4)cc3)ccc2N(C)C(=O)[C@H]1C [Example 96, N-{trans-4-[4-(Cyclopropylmethyl)piperazin-1-yl]cyclohexyl}-4-{[(3R)-1,3-dimethyl-2-oxo-4-(propan-2-yl)-1,2,3,4-tetrahydropyrido[2,3-b]pyrazin-6-yl]amino}benzamide]
0.329	0.145	COc1cc(C(=O)NC2CCN(C(C)=O)CC2)ccc1Nc1ccc2c(n1)N(C1CCCCC1)[C@H](C)C(=O)N2C [Example 39, N-(1-Acetylpiperidin-4-yl)-4-{[(3R)-4-cyclohexyl-1,3-dimethyl-2-oxo-1,2,3,4-tetrahydropyrido[2,3-b]pyrazin-6-yl]amino}-3-methoxybenzamide]
0.325	0.209	CC(C)N1CCN(C(=O)c2ccc(Nc3ccc4c(n3)N(C3CCCCCC3)[C@H](C)C(=O)N4C)cc2)CC1 [Example 92, (3R)-4-Cylcoheptyl-1,3-dimethyl-6-[(4-{[4-(propan-2-yl)piperazin-1-yl]carbonyl}phenyl)amino]-3,4-dihydropyrido[2,3-b]pyrazin-2(1H)-one]
0.257	0.245	Cc1cc(C(=O)N2CCN(C)CC2)ccc1Nc1ccc2c(n1)N(C1CCOCC1)[C@H](C)C(=O)N2C [Example 36, (3R)-1,3-Dimethyl-6-({2-methyl-4-[(4-methylpiperazin-1-yl)carbonyl]phenyl}amino)-4-(tetrahydro-2H-pyran-4-yl)-3,4-dihydropyrido[2,3-b]pyrazin-2(1H)-one]
0.18	0.1	CC(=O)N1CCC(NC(=O)c2ccc(Nc3ccc4c(n3)N(C3CCCCCC3)[C@H](C)C(=O)N4C)cc2)CC1 [Example 86, N-(1-Acetylpiperidin-4-yl)-4-{[(3R)-4-cycloheptyl-1,3-dimethyl-2-oxo-1,2,3,4-tetrahydropyrido[2,3-b]pyrazin-6-yl]amino}benzamide]
0.119	0.237	C[C@@H]1C(=O)N(C)c2ccc(Nc3ccc(C(=O)NCc4ccccn4)cc3)nc2N1C1CCOCC1 [Example 35, 4-{[(3R)-1,3-Dimethyl-2-oxo-4-(tetrahydro-2H-pyran-4-yl)-1,2,3,4-tetrahydropyrido[2,3-b]pyrazin-6-yl]amino}-N-(pyridin-2-ylmethyl)benzamide]
0.104	0.111	COc1cc(C(=O)NC2CCN(C)CC2)ccc1Nc1ccc2c(n1)N(C1CCCCC1)[C@H](C)C(=O)N2C [Example 12, 4-{[(3R)-4-Cyclohexyl-1,3-dimethyl-2-oxo-1,2,3,4-tetrahydropyrido[2,3-b]pyrazin-6-yl]amino}-3-methoxy-N-(1-methylpiperidin-4-yl)benzamide]
0.038	0.055	COc1cc(S(=O)(=O)NC2CCN(C)CC2)ccc1Nc1ccc2c(n1)N(C1CCOCC1)[C@H](C)C(=O)N2C [Example 110, 4-{[(3R)-1,3-Dimethyl-2-oxo-4-(tetrahydro-2H-pyran-4-yl)-1,2,3,4-tetrahydropyrido[2,3-b]pyrazin-6-yl]amino}-3-methoxy-N-(1-methylpiperidin-4-yl)benzenesulphonamide]

Reference: patent US20160193206A1, “BET-PROTEIN-INHIBITING DIHYDROPYRIDOPYRAZINONES” (BAYER PHARMA AKTIENGESELLSCHAFT, priority 2012, published 2016)
